Literature values as cited in patent US11654108B1, “Sennoside medicated chews” (MEDICATED CHEWS, LLC, priority 2022, dated 2023).

[1] = after oral administration of sennosides

Substance: sennosides
- metabolites excreted in urine [1]: 3-6%
- sennosides excreted in feces as polymers (polyquinones) [1]: 90%
- unchanged sennosides, sennidins, rheinanthrone and rhein excreted in feces [1]: 2-6%
- absorption in the upper gut / splitting by human digestive enzymes (upper gut, human digestive enzymes): neither absorbed in the upper gut nor split by human digestive enzymes
